Results: patent publication US20230286955A1, “INHIBITORS OF THEM1” (Cornell University, priority 2022, published 2023)
“Also recorded” adds a separate entry of the source.

Columns and labels:
[1] = test system: primary brown adipocytes cultured from A-Them1Tg mice; test: Oxygen consumption rates (OCR) in primary brown adipocytes; format: cell-based, mouse
Method: Primary brown adipocytes from 4- to 6-w old wild type and A-Them1Tg mice were isolated, cultured and differentiated as described (Okada et al., 2016). In brief, BAT tissues harvested from 5- to 7-w old mice were pooled, minced and digested with collagenase B (Sigma-Aldrich; St. Louis, MO), and dispersed in growth medium [DMEM/F12 containing 4.5 g/L glucose, 0.1 mM pyruvate, 10 mM HEPES (Thermo Fisher; Waltham, MA) supplemented with 1% penicillin/streptomycin, 1% GlutaMAX (Thermo Fisher; Waltham, MA) and 20% fetal bovine serum]. […] Upon achieving confluence, pre-adipocytes were induced to differentiate for 8 d by culturing for the first 48 h in differentiation medium [DMEM/F12 containing 4.5 g/L glucose, 0.1 mM pyruvate, 10 mM HEPES (Thermo Fisher; Waltham, MA) supplemented with 1% penicillin/streptomycin, 1% GlutaMAX (Thermo Fisher; Waltham, MA), 10% fetal bovine serum, bovine insulin (5 μg/mL; Thermo Fisher; Waltham, MA) and rosiglitazone (1 μM; Sigma Aldrich; St. Louis, MO)] supplemented with dexamethasone (5 μM; Sigma Aldrich; St. Louis, MO) and 3-isobutyl-1-methylxanthine (0.5 mM; Sigma Aldrich; St. Louis, MO) and differentiation medium thereafter. On differentiation d 6 to 8, the adipocyte differentiation media was supplemented with L-(−)-norepinephrine (+) bitartrate (Calbiochem; EMD Millipore; Billerica, MA). Primary brown adipocytes were maintained in a cell culture incubator at 37° C. with 5% CO2.
In primary brown adipocytes on d 8 of differentiation, values of OCR were measured in the presence or absence of compounds using a Seahorse XF96 extracellular flux analyzer (Agilent Technologies; Santa Clara, CA). […] OCR values were measured before and after the exposure of cells to NE (1 μM) and normalized with total live cell count calculated through staining with NucRed Live probe (Thermo Fisher; Waltham, MA) measured at 715 nm emission and 623 nm excitation using a SpectraMax i3X plate reader (Molecular Devices; San Jose; CA).

[2] = test system: primary hepatocytes; test: Glucose production in primary hepatocytes; format: cell-based, mouse; settings: compound 33 μM, pyruvate 2 mM, lactate 20 mM
Method: (§1) Primary hepatocytes cultured were prepared from 6- to 14-w old wild type, L-Them1Tg and Them1^−/− mice following anesthesia with ketamine and xylazine. Livers were perfused through the portal vein with 20 mL of liver perfusion medium (Thermo Fisher; Walham, MA) followed by 40 mL of liver digestion medium (Thermo Fisher; Walham, MA). Primary hepatocytes were gently disrupted from the liver capsule into hepatocyte wash medium (Thermo Fisher; Waltham, MA), filtered through a 70 μm cell strainer and then spun down at 30×g for 4 min at 4° C. Primary hepatocytes were cultured in William's Medium E (Thermo Fisher; Waltham, MA) supplemented with 1% penicillin/streptomycin and 10% fetal bovine serum. […] Cultured primary hepatocytes were maintained in a cell culture incubator at 37° C. with 5% CO2.
Rates of glucose production were determined as previously described with modifications (Kawano et al., 2014). Primary hepatocytes cultured from wild type, L-Them1Tg and Them1^−/' mice were serum-starved in Medium 199 (Thermo Fisher; Waltham, MA) for 16 h and then washed twice with PBS. […] Glucose concentrations in the media were measured enzymatically through a commercial kit according to the manufacturer's instructions using a NEO plate reader (BioTek, Winooski, VT).

[3] = in vitro; settings: C57BL/6, mouse, primary brown adipocytes
Method: Cytotoxicities of compounds were determined using a CellTiter-Glo® Luminescent Cell Viability Assay, which measures concentrations of ATP liberated from viable cells (Promega; Madison, WI). […] Tamoxifen (50 μM) was used as a (+) control. CellTiter-Glo reagent (10 μL) was added to each well and incubated on an orbital shaker for 10 min at 22° C. to induce cell lysis and stabilize the luminescent signal. Relative luminescent units (RLU) were determined using a NEO plate reader (BioTek, Winooski, VT).

[4] = test system: primary hepatocytes; test: Oxygen consumption rates (OCR) in primary hepatocytes after palmitate; format: cell-based, mouse; settings: compound 33 μM, palmitate-BSA 300 μM
Method: as §1
In primary hepatocytes, values of OCR were measured using a Seahorse XF24 extracellular flux analyzer (Agilent Technologies; Santa Clara, CA). […] OCR values were measured before and after the exposure of cells to palmitic acid conjugated with fatty acid-free BSA (300 μM) and normalized with total live cell count calculated through staining with NucRed Live probe (Thermo Fisher; Waltham, MA) measured at 715 nm emission and 623 nm excitation using a SpectraMax i3X plate reader (Molecular Devices; San Jose; CA).

[5] = molecular target: T1, recombinant mouse Them1 (Mus musculus, UniProt Q8VHQ9); test: Acot activity assay, mouse Them1; format: biochemical; settings: in words (FIG. 6B)
T1 construct: made in house; host or cells: E. coli BL21 (DE3)
T1 sequence (Q8VHQ9 21-594): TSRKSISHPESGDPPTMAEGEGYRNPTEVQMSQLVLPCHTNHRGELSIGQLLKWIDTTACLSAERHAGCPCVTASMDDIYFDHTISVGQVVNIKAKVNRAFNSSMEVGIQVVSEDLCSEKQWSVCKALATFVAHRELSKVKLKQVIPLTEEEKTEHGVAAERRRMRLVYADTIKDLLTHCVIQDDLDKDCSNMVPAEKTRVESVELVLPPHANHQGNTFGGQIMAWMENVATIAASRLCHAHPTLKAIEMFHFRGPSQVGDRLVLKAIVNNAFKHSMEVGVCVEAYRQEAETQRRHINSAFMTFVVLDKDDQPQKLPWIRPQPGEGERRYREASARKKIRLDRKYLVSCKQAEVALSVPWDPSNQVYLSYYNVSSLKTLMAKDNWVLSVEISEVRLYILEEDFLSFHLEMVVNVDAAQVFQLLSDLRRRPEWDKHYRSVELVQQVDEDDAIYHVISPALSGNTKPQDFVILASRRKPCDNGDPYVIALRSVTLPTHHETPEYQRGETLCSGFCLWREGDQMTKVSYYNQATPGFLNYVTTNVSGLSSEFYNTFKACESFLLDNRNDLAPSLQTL
Excerpt: (Zhang et al., 1999). Values are show in the following Table.

[6] = molecular target: T2, recombinant His-tagged human Them1 (Homo sapiens, UniProt Q8WXI4); test: Assay for reversibility of Them1 inhibition (dialysis); format: biochemical; settings: compounds […], C14-CoA 25 μM, 18 h dialysis
T2 construct: Reaction labeling recombinant full-length Them1; made in house; host or cells: E. coli Shuffle T7
T2 sequence (Q8WXI4 14-594 isoform Q8WXI4-2 limits assumed): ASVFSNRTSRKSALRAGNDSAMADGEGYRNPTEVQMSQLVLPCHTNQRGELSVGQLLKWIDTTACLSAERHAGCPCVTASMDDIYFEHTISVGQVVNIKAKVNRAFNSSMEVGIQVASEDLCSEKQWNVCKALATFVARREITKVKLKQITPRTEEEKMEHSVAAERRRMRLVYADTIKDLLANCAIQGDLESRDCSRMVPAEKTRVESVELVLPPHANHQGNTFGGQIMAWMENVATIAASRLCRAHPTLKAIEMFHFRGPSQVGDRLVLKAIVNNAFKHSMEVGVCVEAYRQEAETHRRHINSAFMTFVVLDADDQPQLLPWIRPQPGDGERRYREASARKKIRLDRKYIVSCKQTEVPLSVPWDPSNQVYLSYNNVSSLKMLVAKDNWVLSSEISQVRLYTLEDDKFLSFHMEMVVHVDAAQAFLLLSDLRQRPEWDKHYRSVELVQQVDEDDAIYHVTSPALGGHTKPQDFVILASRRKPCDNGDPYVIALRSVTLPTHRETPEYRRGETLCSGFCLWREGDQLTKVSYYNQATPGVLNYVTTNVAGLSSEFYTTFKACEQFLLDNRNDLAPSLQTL
Method: Three buffer changes were performed over the extent of the 18 h dialysis. Post-dialysis reactions were incubated with fresh C14-CoA (25 μM) for 60 min at 22° C. Ebselen (Sigma Aldrich; St. Louis, MO) was used as a (−) control.

[7] = molecular target: full-length human Acot12 (Homo sapiens, UniProt Q8WYK0); test: biochemical
Method: (§2) Reaction labeling recombinant full-length Them1, Them1l-ΔSTART, START or Acot12 with Monolith RED-Tris-NTA (NanoTemper Technologies; San Francisco, CA) were performed according to the manufacturer's instructions in buffer containing PBS plus 0.5% Tween-20 for 60 min at 22° C. with a molar dye: protein ratio=1:1. […] Working concentrations of compounds were prepared by diluting in microscale thermophoresis buffer. Reactions consisting of 100 nM of fluorescently labeled recombinant protein (full-length Them1, Them1-ΔSTART, START or Acot12) and compounds were loaded onto standard Monolith NT.115 Capillaries (NanoTemper Technologies; San Francisco, CA). Fluorescence was measured using a Monolith NT.115 instrument (NanoTemper Technologies; San Francisco, CA) at 22° C. with instrument parameters adjusted to 40% LED power and medium microscale thermophoresis power. Data were fitted by non-linear regression in GraphPad Prism (GraphPad Software; San Diego, CA).

[8] = molecular target: T3, Them1-ΔSTART (Homo sapiens, UniProt Q8WXI4); test: Microscale thermophoresis binding, Them1-ΔSTART; settings: for binding to Them1-ΔSTART: in words; for Kd: read-out: Kd, Thioesterase domains (Them1-ΔSTART ), MST, 100 nM labeled protein, 22° C.
T3 sequence (Q8WXI4 43-329 isoform Q8WXI4-2 limits assumed): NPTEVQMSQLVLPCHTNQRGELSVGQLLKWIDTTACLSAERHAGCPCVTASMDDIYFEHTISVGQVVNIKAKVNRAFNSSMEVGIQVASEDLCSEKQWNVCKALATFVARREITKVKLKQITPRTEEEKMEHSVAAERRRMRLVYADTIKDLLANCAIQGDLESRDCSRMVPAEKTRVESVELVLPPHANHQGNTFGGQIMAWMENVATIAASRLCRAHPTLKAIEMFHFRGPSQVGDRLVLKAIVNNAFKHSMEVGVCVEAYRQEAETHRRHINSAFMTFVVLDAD
Method: (§3) Data represent the mean (s.e.m.) of triplicate determinations. Where not visible, error bars are contained within the symbol sizes.
as §2

[9] = molecular target: T4, Them1 START domain (Homo sapiens, UniProt Q8WXI4); test: Microscale thermophoresis binding, START domain; settings: in words
T4 sequence (Q8WXI4 339-594 isoform Q8WXI4-2): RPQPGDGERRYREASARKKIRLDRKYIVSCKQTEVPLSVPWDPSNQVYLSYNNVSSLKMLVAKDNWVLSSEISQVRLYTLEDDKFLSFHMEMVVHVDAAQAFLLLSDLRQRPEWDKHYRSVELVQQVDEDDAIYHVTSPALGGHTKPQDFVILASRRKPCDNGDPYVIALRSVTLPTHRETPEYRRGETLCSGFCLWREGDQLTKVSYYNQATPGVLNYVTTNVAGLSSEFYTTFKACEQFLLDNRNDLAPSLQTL
Excerpt: A synthetic gene encoding the START domain was cloned into a pNIC28-Bsa4 bacterial expression vector (Novagen, EMD Biosciences; Madison, WI), which introduced an in-frame N-terminal His6 fusion containing a tobacco etch virus protease cleavage site to facilitate tag removal. The pNIC28-Bsa4-START domain plasmid was co-transformed into E. coli BL21 (DE3) (New England Biolabs; Ipswich, MA) competent cells with a pG-Tf2 vector (encoding groES-gorEL-tig chaperones) and then grown to an A600 of 0.5-0.7 in terrific broth. Under conditions of shaking (250 rpm) at 18° C., chaperones were induced by the addition of 5 ng/mL tetracycline HCl for 60 min followed by START domain induction upon the addition of 0.5 mM isoproyl β-D-thiogalactoside for ˜18 h. The bacteria were harvested by centrifugation, and then lysed by sonication with 20 mM Tris-Cl (pH 7.4), 500 mM NaCl, 25 mM imidazole, 5% glycerol, lysozyme, Dnase A, 0.1% Triton X-100, 5 mM β-mercaptoethanol and 100 μM phenylmethylsulfonyl fluoride. Following centrifugation of the bacterial lysate, recombinant START was purified by FPLC using a His affinity column (HisTrap HP column; GE Healthcare; Waukesha, WI). The soluble fraction containing recombinant START was applied to the column after equilibration with 20 mM Tris-Cl (pH 7.4), 500 mM NaCl, 25 mM imidazole and 5% glycerol, and then washed with the same buffer. Recombinant START was eluted from the HisTrap HP column using 20 mM Tris-Cl (pH 7.4), 500 mM NaCl, 500 mM imidazole and 5% glycerol followed by tobacco etch virus protease-mediated His-tag cleavage at 4° C. overnight with simultaneous dialysis into 20 mM Tris-Cl (pH 7.4), 500 mM NaCl and 5% glycerol. Recombinant START was further purified using a Superdex column (HiLoad 16/60 Superdex 75 column; GE Healthcare; Waukesha, WI) in 20 mM Tris-Cl (pH 7.4), 500 mM NaCl and 5% glycerol. Assessment of purity, protein concentration and storage of single use aliquots of recombinant START were performed as described above for recombinant Them1.
Reaction labeling recombinant full-length Them1, Them1l-ΔSTART, START or Acot12 with Monolith RED-Tris-NTA (NanoTemper Technologies; San Francisco, CA) were performed according to the manufacturer's instructions in buffer containing PBS plus 0.5% Tween-20 for 60 min at 22° C. with a molar dye: protein ratio=1:1. […] Working concentrations of compounds were prepared by diluting in microscale thermophoresis buffer. […] Fluorescence was measured using a Monolith NT.115 instrument (NanoTemper Technologies; San Francisco, CA) at 22° C. with instrument parameters adjusted to 40% LED power and medium microscale thermophoresis power. […]

[10] = molecular target: T5, full-length Them1 (Homo sapiens, UniProt Q8WXI4); test: Microscale thermophoresis binding, full-length Them1; settings: in words
T5 sequence (Q8WXI4 14-594 isoform Q8WXI4-2 limits assumed): T2 sequence (Q8WXI4 14-594 isoform Q8WXI4-2 limits assumed)
Method: as §3, §2

[11] = molecular target: T5, full-length Them1; test: biochemical
Method: as §3, §2

full-length human Acot12, sequence (Q8WYK0 whole entry, the tested form may be a part): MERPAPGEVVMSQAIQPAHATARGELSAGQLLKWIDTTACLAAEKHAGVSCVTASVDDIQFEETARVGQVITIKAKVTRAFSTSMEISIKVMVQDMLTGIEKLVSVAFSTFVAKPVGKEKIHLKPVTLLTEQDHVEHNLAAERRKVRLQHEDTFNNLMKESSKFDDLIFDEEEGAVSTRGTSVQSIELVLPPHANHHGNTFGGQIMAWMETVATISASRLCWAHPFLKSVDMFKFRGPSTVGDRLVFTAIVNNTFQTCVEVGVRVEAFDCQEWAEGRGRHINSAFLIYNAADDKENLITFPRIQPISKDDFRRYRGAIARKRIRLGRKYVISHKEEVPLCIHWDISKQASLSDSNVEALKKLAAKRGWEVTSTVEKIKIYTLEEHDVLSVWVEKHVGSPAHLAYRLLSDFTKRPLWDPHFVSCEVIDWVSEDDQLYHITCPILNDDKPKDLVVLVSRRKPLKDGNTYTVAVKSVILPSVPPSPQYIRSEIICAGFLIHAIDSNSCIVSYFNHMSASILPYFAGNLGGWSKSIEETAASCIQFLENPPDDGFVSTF

SMILES | OCR in A-Them1Tg brown adipocytes, reversal of Them1 suppression ([1]; NE-stimulated, compounds at 10 μM (FIGS. 3B-C, 8B-C)) | glucose production in L-Them1Tg hepatocytes [2] | CC50 at 48 h [3] [µM] | OCR following palmitate stimulation in L-Them1Tg hepatocytes [4] | OCR following palmitate stimulation in Them1−/− hepatocytes [4] | inhibition of mouse Them1 activity compared to human Them1 [5] | Them1 activity after overnight dialysis (reversibility of inhibition) [6] | Kd [7] [µM] | binding to Them1-ΔSTART [8] | Kd [8] [µM] | OCR in A-Them1Tg brown adipocytes, reversal of Them1 suppression ([1]; compounds at their in vitro IC50 concentrations, 30 min, NE 1 μM, vs wild type (DMSO)) | binding affinity to the START domain compared to the parent U1 compound [9] | Kd / binding affinity to full-length Them1 compared to the parent U1 compound [10] | Kd [11] [µM]
CCOC(=O)N1CCN(C(c2cccs2)c2c(C)[nH]c3ccccc23)CC1 (stereo not drawn) [Compound U1, ethyl 4-((2-methyl-1H-indol-3-yl)(thiophen-2-yl)methyl)piperazine-1-carboxylate] | reversed the suppressive effects of Them1 activity | reduced | > 125 | reversed this suppressive effect of Them1 | did not increase OCR values | comparable potencies | restored Them1 activity | > 125 | lacked the capacity to bind; also recorded: lacked binding | > 125 | – | – | – | –
Cc1[nH]c2ccccc2c1C(c1cccs1)N1CCN(C(=O)C(C)C)CC1 (stereo not drawn) [Compound U11, 2-methyl-1-(4-((2-methyl-1H-indol-3-yl)(thiophen-2-yl)methyl)piperazin-1-yl)propan-1-one] | – | – | > 125 | – | – | – | – | > 125 | did not bind | > 125 | reversed the suppressive effects of Them1 on values of OCR | tighter | tighter | 0.87
